COc1cc2c(cc1OC)-c1cc3ccc(OC)c(OC)c3c[n+]1CC2.[Cl-]
solubility (mole fraction)
Conditions | 283.15 K | 288.15 K | 293.15 K | 298.15 K | 303.15 K | 308.15 K | 313.15 K | 318.15 K | 323.15 K | 328.15 K
in ethanol | 0.00254 | 0.00299 | 0.00366 | 0.0045 | 0.00543 | 0.00651 | 0.00779 | 0.00914 | 0.0108 | 0.0127
in ethylene glycol | 0.00173 | 0.00202 | 0.00242 | 0.003 | 0.00362 | 0.00441 | 0.00529 | 0.00631 | 0.00745 | 0.00882
in isopropanol | 0.000177 | 0.000218 | 0.00028 | 0.000374 | 0.000479 | 0.000603 | 0.000754 | 0.000933 | 0.00115 | 0.00141
in propylene glycol | 6.32e-06 | 9.38e-06 | 1.36e-05 | 2.11e-05 | 3.12e-05 | 4.53e-05 | 6.48e-05 | 9.27e-05 | 0.00013 | 0.00018
in water | 0.000565 | 0.000693 | 0.000877 | 0.0011 | 0.00136 | 0.00165 | 0.002 | 0.0024 | 0.00287 | 0.00341
